Data taken from patent US8586591B2, “Aminopyrazine derivative and medicine” (Nippon Shinyaku Co., Ltd., priority 2009, dated 2013).
Structures can show the parent of a compound that is named as a salt.

Each compound was assayed against T1, JAK3 tyrosine kinase (Homo sapiens, UniProt P52333) (assay: Test 1: inhibitory activity to JAK3 tyrosine kinase (ELISA)). Details: 25 μM ATP in substrate solution, 30° C. for 1 hour, n=2.
T1 construct: purchased Carnabioscience Co
T1 sequence (P52333 1-1124): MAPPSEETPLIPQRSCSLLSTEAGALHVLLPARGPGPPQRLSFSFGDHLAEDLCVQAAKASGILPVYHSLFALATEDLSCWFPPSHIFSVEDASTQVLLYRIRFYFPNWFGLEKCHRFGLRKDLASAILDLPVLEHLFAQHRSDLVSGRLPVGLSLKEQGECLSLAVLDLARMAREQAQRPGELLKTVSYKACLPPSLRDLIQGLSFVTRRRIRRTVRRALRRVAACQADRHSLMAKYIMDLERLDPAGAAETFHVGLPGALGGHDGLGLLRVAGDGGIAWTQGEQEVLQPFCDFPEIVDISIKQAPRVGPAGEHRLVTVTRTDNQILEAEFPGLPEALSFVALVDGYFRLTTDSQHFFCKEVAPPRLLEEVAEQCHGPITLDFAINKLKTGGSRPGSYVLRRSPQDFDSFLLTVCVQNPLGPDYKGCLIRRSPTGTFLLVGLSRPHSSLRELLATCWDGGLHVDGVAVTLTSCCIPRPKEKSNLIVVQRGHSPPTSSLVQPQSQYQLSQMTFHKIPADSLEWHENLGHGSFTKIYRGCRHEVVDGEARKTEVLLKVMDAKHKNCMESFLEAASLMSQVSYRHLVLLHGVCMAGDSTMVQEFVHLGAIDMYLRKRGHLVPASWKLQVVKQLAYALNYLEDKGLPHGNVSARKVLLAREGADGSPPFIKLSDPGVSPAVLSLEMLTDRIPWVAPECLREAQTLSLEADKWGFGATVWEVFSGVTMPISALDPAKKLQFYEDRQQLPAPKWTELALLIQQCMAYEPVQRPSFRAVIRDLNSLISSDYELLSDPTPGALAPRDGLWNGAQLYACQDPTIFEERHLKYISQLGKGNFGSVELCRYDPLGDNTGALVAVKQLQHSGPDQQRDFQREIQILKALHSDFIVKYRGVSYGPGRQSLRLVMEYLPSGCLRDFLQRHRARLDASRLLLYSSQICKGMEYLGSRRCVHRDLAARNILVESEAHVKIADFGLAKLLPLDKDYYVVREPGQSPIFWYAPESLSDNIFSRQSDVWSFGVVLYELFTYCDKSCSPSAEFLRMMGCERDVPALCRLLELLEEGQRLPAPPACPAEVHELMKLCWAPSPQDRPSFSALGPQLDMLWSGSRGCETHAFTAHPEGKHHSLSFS
Type: biochemical
Procedure: Test 1: Test for inhibitory activity to JAK2 and JAK3 tyrosine kinase 1. […] The test material was dissolved in dimethylsulfoxide (DMSO) to be 10 mM, and further diluted with DMSO to be 100-fold concentrations for measurement (1000, 300, 100, 30, 10, 3, 1, 0.3, 0.1, 0.03, 0.01 μM). In addition, solutions diluted with an assay buffer up to 20 times were used as solutions of the test material. As a negative control, a solution of DMSO diluted 20 times with an assay buffer was used. […] 2. Measurement of the Activities of JAK2 and JAK3 Tyrosine Kinases The activity was determined by ELISA. […] The absorbance was measured by means of a micro-plate reader (BIO-RAD; Model 3550) at 450 nm. 3. Analysis of the Results of the Measurement The measured absorbance was subjected to a non-linear regression analysis by means of a SAS system (SAS Institute Inc.), and the concentration (IC50) of the test material which inhibited 50% of the activity of each tyrosine kinase was estimated.

Row | Structure (SMILES) | IC50
1 | C[C@H](Nc1cc(C(=O)NCc2ccccc2)cc(Nc2cnccn2)n1)c1ccc(F)cc1 [Example 162, (S)—N-Benzyl-2-[1-(4-fluorophenyl)ethylamino]-6-(pyrazin-2-ylamino)isonicotinamide hydrochloride] | 370 nM
2 | COC(=O)c1cc(Nc2cnccn2)nc(N[C@@H](C)c2ccc(F)cc2)c1 [Example 134, Methyl (S)-2-[1-(4-fluorophenyl)ethylamino]-6-(pyrazin-2-ylamino)isonicotinate] | 620 nM
3 | C[C@H](Nc1cc(Nc2cnccn2)cc(Nc2cnccn2)n1)c1ccc(F)cc1 [Example 137, (S)—N^2-[1-(4-Fluorophenyl)ethyl]-N^4,N^6-di(pyrazin-2-yl)pyridine-2,4,6-triamine] | 160 nM
4 | COCCNC(=O)c1cc(Nc2cnccn2)nc(N[C@@H](C)c2ccc(F)cc2)c1 [Example 165, (S)-2-[1-(4-Fluorophenyl)ethylamino]-N-(2-methoxyethyl)-6-(pyrazin-2-ylamino)isonicotinamide] | 360 nM
5 | C[C@H](Nc1cc(Nc2ccccn2)cc(Nc2cnccn2)n1)c1ccc(F)cc1 [Example 132, (S)—N^2-[1-(4-Fluorophenyl)ethyl]-N^6-(pyrazin-2-yl)-N^4-(pyridin-2-yl)pyridine-2,4,6-triamine] | 350 nM
6 | C[C@H](Nc1nc(Nc2cnccn2)cc(-c2ncon2)n1)c1ccc(F)cc1 [Example 146, (S)—N^2-[1-(4-Fluorophenyl)ethyl]-6-(1,2,4-oxadiazol-3-yl)-N^4-(pyrazin-2-yl)pyrimidine-2,4-diamine hydrochloride] | 1400 nM
7 | CNS(=O)(=O)c1ccc(-c2cc(Nc3cnccn3)nc(N[C@@H](C)c3ccc(F)cc3)n2)cc1 [Example 135, (S)-4-{2-[1-(4-Fluorophenyl)ethylamino]-6-(pyrazin-2-ylamino)pyrimidin-4-yl}-N-methylbenzenesulfonamide hydrochloride] | 320 nM
8 | CC(C)NC(=O)c1cc(Nc2cnccn2)nc(N[C@@H](C)c2ccc(F)cc2)c1 [Example 155, (S)-2-[1-(4-Fluorophenyl)ethylamino]-N-isopropyl-6-(pyrazin-2-ylamino)isonicotinamide] | 390 nM
9 | C[C@H](Nc1cc(C(=O)O)cc(Nc2cnccn2)n1)c1ccc(F)cc1 [Example 141, (S)-2-[1-(4-Fluorophenyl)ethylamino]-6-(pyrazin-2-ylamino)isonicotinic acid] | 440 nM
10 | CNC(=O)c1cc(Nc2cnccn2)nc(N[C@@H](C)c2ccc(F)cc2)c1 [Example 160, (S)-2-[1-(4-Fluorophenyl)ethylamino]-N-methyl-6-(pyrazin-2-ylamino)isonicotinamide] | 100 nM
11 | C[C@H](Nc1cc(C(=O)N2CCN(C)CC2)cc(Nc2cnccn2)n1)c1ccc(F)cc1 [Example 164, (S)-{2-[1-(4-Fluorophenyl)ethylamino]-6-(pyrazin-2-ylamino)pyridin-4-yl}(4-methylpiperazin-1-yl)methanone hydrochloride] | 470 nM
12 | COC(=O)c1ccc(Nc2cnccn2)nc1N[C@@H](C)c1ccc(F)cc1 [Example 148, Methyl (S)-2-[1-(4-fluorophenyl)ethylamino]-6-(pyrazin-2-ylamino)nicotinate] | 810 nM
13 | C[C@H](Nc1cc(C(=O)NC2CC2)cc(Nc2cnccn2)n1)c1ccc(F)cc1 [Example 163, (S)—N-Cyclopropyl-2-[1-(4-fluorophenyl)ethylamino]-6-(pyrazin-2-ylamino)isonicotinamide] | 170 nM
14 | C[C@H](Nc1cc(Nc2ncccn2)cc(Nc2cnccn2)n1)c1ccc(F)cc1 [Example 131, (S)—N^2-[1-(4-Fluorophenyl)ethyl]-N^6-(pyrazin-2-yl)-N^4-(pyrimidin-2-yl)pyridine-2,4,6-triamine] | 180 nM
15 | C[C@H](Nc1cc(OC2CCOCC2)cc(Nc2cnccn2)n1)c1ccc(F)cc1 [Example 157, (S)—N^2-[1-(4-Fluorophenyl)ethyl]-N^6-(pyrazin-2-yl)-4-(tetrahydro-2H-pyran-4-yloxy)pyridine-2,6-diamine hydrochloride] | 150 nM
16 | CCNC(=O)c1cc(Nc2cnccn2)nc(N[C@@H](C)c2ccc(F)cc2)c1 [Example 152, (S)—N-Ethyl-2-[1-(4-fluorophenyl)ethylamino]-6-(pyrazin-2-ylamino) isonicotinamide] | 93 nM
17 | C[C@H](Nc1cc(C(=O)N2CCOCC2)cc(Nc2cnccn2)n1)c1ccc(F)cc1 [Example 161, (S)-{2-[1-(4-Fluorophenyl)ethylamino]-6-(pyrazin-2-ylamino)pyridin-4-yl}(morpholino)methanone] | 230 nM
18 | C[C@H](Nc1cc(C(=O)N(C)C)cc(Nc2cnccn2)n1)c1ccc(F)cc1 [Example 149, (S)-2-[1-(4-Fluorophenyl)ethylamino]-N,N-dimethyl-6-(pyrazin-2-ylamino)isonicotinamide] | 690 nM
19 | C[C@H](Nc1nc(C#N)cc(Nc2cnccn2)n1)c1ccc(F)cc1 [Example 143, (S)-2-[1-(4-Fluorophenyl)ethylamino]-6-(pyrazin-2-ylamino)pyrimidine-4-carbonitrile] | 2100 nM
20 | COCCOc1cc(Nc2cnccn2)nc(N[C@@H](C)c2ccc(F)cc2)c1 [Example 142, (S)—N^2-[1-(4-Fluorophenyl)ethyl]-4-(2-methoxyethoxy)-N^6-(pyrazin-2-yl)pyridine-2,6-diamine hydrochloride] | 66 nM
21 | C[C@H](Nc1cc(N2CCC3(CC2)OCCO3)cc(Nc2cnccn2)n1)c1ccc(F)cc1 [Example 133, N^2-[(S)-1-(4-Fluorophenyl)ethyl]-N^6-(pyrazin-2-yl)-4-(1,4-dioxa-8-azaspiro[4.5]decan-8-yl)pyridine-2,6-diamine] | 230 nM
22 | C[C@H](Nc1cc(CO)cc(Nc2cnccn2)n1)c1ccc(F)cc1 [Example 140, (S)-{2-[1-(4-Fluorophenyl)ethylamino]-6-(pyrazin-2-ylamino)pyridin-4-yl}methanol] | 61 nM
23 | C[C@H](Nc1cc(N2CCS(=O)(=O)CC2)cc(Nc2cnccn2)n1)c1ccc(F)cc1 [Example 128, 4-{2-[(1S)-1-(4-Fluorophenyl)ethylamino]-6-(pyrazin-2-ylamino)pyridin-4-yl}-1λ^6,4-thiomorpholin-1,1-dione] | 46 nM
24 | C[C@H](Nc1cc(C(=O)NCCO)cc(Nc2cnccn2)n1)c1ccc(F)cc1 [Example 159, (S)-2-[1-(4-Fluorophenyl)ethylamino]-N-(2-hydroxyethyl)-6-(pyrazin-2-ylamino)isonicotinamide] | 170 nM
25 | C[C@H](Nc1cc(C#N)cc(Nc2cnccn2)n1)c1ccc(F)cc1 [Example 144, (S)-2-[1-(4-Fluorophenyl)ethylamino]-6-(pyrazin-2-ylamino)isonicotinonitrile] | 210 nM
26 | COc1cc(Nc2cnccn2)nc(N[C@@H](C)c2ccc(F)cc2)c1 [Example 127, (S)—N^2-[1-(4-Fluorophenyl)ethyl]-4-methoxy-N^6-(pyrazin-2-yl)pyridine-2,6-diamine] | 200 nM
27 | C[C@H](Nc1nc(Nc2cnccn2)cc(N2CC(C(N)=O)C2)n1)c1ccc(F)cc1 [Example 158, (S)-1-{2-[1-(4-Fluorophenyl)ethylamino]-6-(pyrazin-2-ylamino)pyrimidin-4-yl}azetidine-3-carboxamide] | 39 nM
28 | CC(=O)N1CCCN(c2cc(Nc3cnccn3)nc(N[C@@H](C)c3ccc(F)cc3)c2)CC1 [Example 130, (S)-1-(4-{2-[1-(4-fluorophenyl)ethylamino]-6-(pyrazin-2-ylamino)pyridin-4-yl}-1,4-diazepan-1-yl)ethanone] | 570 nM
29 | C[C@H](Nc1nc(Nc2cnccn2)cc(N2CC[C@H]2C(N)=O)n1)c1ccc(F)cc1 [Example 156, (S)-1-{2-[(S)-1-(4-Fluorophenyl)ethylamino]-6-(pyrazin-2-ylamino)pyrimidin-4-yl}azetidine-2-carboxamide] | 580 nM
